Entries after “also recorded” stand apart in the source; their conditions may differ. Read-outs that look alike come from different tables or passages of the source.
Test: Study 1 MAD part: plasma and urine pharmacokinetics, once daily for 14 days
Format: in vivo, human
Details: for AUC / Cmax / Tmax / half-life: male, human, plasma, oral; for AUC: dosing interval 24 hours; for Tmax: median (minimum-maximum)
Procedure: GLPG1205 or matching placebo were administered as an oral nanosuspension in the morning in a fed condition as an outpatient. For both the single ascending doses (SADs) and multiple ascending doses (MADs) parts of the study, subjects attended a screening visit (21 to 2 days before first study drug administration) and a follow‐up visit (7 to 10 days after the last dose).
In the MAD part of study 1, 24 healthy male subjects in 3 cohorts (C, D, and E; n = 8 each) each received GLPG1205 or matching placebo once daily for 14 days. Cohorts C, D, and E received GLPG1205 50 mg once daily or matching placebo, GLPG1205 100 mg once daily or matching placebo, and GLPG1205 200 mg once daily or matching placebo, respectively. Within a cohort, subjects were randomized to receive GLPG1205 or matching placebo in a 3:1 ratio. An interval of at least 6 days was enforced between cohorts. Subjects were kept in‐house from the evening of day –1 until ≈26 hours after first dosing (morning of day 2), and from the evening of day 13 to the morning of day 15. Administration of the study drug was performed daily at the clinical pharmacology unit.
In the SAD part of study 1, blood samples (2 mL) for PK assessments were obtained before dosing and at multiple time points on the day of study drug administration (before dosing and 0.5, 1, 2, 4, 6, 8, and 12 hours after dosing) and at 24, 48, and 72 hours after dosing. The predose sample for the next dose level was also used in PK analysis (168 hours after dosing). […] In the MAD part of study 1, blood samples (2 mL) were obtained on days 1, 2, 4, 5, 6, 8, 10, 12, 14, 15, 16, 17, and 18 and at follow‐up (approximately 7 to 10 days after the last dose). These PK blood samples were taken after dosing (1, 2, 4, 6, 8, 12, and 24 hours) on day 1; before dosing on days 4, 6, 8, and 10; and after dosing (1, 2, 4, 6, 8, 12, 24, 72, and 96 hours) on day 14. The following additional PK blood samples were also taken: cohort C, before dosing on day 5; and cohorts D and E, before dosing on day 12. Urine samples were obtained from fractions collected over 6‐ or 12‐hour periods after dosing on days –1, 1, 2, 13, 14, and 15; samples obtained on days –1 and 13 were for cytochrome P450 (CYP) induction analysis only. In study 2, blood samples (2 mL) were obtained on days 1, 2, 5, 7, 10, 14, 15, 17, and 20 and at follow‐up (approximately 21 days after end of study medication administration). Blood samples were taken before dosing and at 1, 2, 4, 6, 8, 12, and 24 hours after drug administration on days 1 and 14 and before dosing on other sampling days.
Blood samples were immediately chilled (ice bath), and the plasma was separated by centrifugation (4°C for 10 minutes at ≈1500 g) within 30 minutes of blood collection.
GLPG1205 plasma concentrations were determined using a validated liquid chromatography with tandem mass spectrometry method. After a protein precipitation with methanol, a chromatographic separation was performed on a Kinetex C18 column (50×3.0 mm, 2.6 μm; Phenomenex, Torrance, California) set at 40°C by using a Nexera high‐performance liquid chromatography (HPLC) system (Shimadzu, Kyoto, Japan) or an Infinity HPLC system (Agilent Technologies, Diegem, Belgium) in isocratic elution mode. A QTRAP6500, QTRAP4000, or API4000 mass spectrometer (AB Sciex, Nieuwerkerk aan den Ijssel, The Netherlands) equipped with a TurboIonSpray probe operated in the multiple reaction monitoring in positive mode was used for quantification. The calibration curves in plasma were linear over the range of 1 to 1000 ng/mL with 1/x^2 as weighting factor. The limit of quantification of the assay in the plasma samples was set at 1 ng/mL.
GLPG1205 concentrations in urine fractions were determined by using a qualified liquid chromatography with tandem mass spectrometry method derived from the plasma method. […]

[1] = 50 mg, 50 mg once daily, day 1, mean (CV%)
[2] = 50 mg, 50 mg once daily, day 14, mean (CV%)
[3] = 100 mg, 100 mg once daily, day 1, mean (CV%)
[4] = 100 mg, 100 mg once daily, day 14, mean (CV%)
[5] = 200 mg, 200 mg once daily, day 1, mean (CV%)

With `O=c1nc(OC[C@@H]2COCCO2)cc2n1CCc1cc(C#CC3CC3)ccc1-2` [GLPG1205, 9‐cyclopropylethynyl‐2‐((S)‐1‐[1,4]dioxan‐2‐ylmethoxy)‐6,7‐dihydropyrimido[6,1‐a]isoquinolin‐4‐one] the “Ae(Τ), amount excreted in urine over 24 hours” value (from here on “Ae(Τ) … over 24 hours”) (50 mg once daily, day 1, mean (CV%)) was 0.0785 (22.9) % dose, the “Ae(Τ) … over 24 hours” value (50 mg once daily, day 14, mean (CV%), N = 5) was 0.428 (22.0)^N = 5 % dose and the “Ae(Τ) … over 24 hours” value (100 mg once daily, day 1, mean (CV%), N = 4) was 0.0746 (30.1)^N = 4 % dose. The “Ae(Τ) … over 24 hours” value (100 mg once daily, day 14, mean (CV%)) was 0.480 (27.2) % dose, the “Ae(Τ) … over 24 hours” value (200 mg once daily, day 1, mean (CV%)) was 0.123 (27.0) % dose and the “dose-proportionality of steady-state exposure (Cmax and AUCΤ)” value (50 to 100 mg once daily) was “increased in proportion with the dose; also recorded: increased proportionally with the dose”. The “excretion of unchanged GLPG1205 in urine over 24 hours” value (at steady state on day 14) was < 0.48 % of the administered dose, the AUC [1] was 7580 ng·h/mL and the Cmax [1] was 469 ng/mL. For the same molecule, the Tmax (50 mg, 50 mg once daily, day 1) was 3 h, the AUC [2] was 41300 ng·h/mL and the Cmax [2] was 2050 ng/mL. The half-life (50 mg, 50 mg once daily, day 14, mean (CV%), read-out: t1/2,λz (converted)) was 76.7 h, the Tmax (50 mg, 50 mg once daily, day 14) was 4 h and the AUC [3] was 14400 ng·h/mL. The Cmax [3] was 875 ng/mL, the Tmax (100 mg, 100 mg once daily, day 1) was 4 h and the AUC [4] was 82700 ng·h/mL. The Cmax [4] was 3910 ng/mL, the half-life (100 mg, 100 mg once daily, day 14, mean (CV%), read-out: t1/2,λz (converted)) was 88.6 h and the Tmax (100 mg, 100 mg once daily, day 14) was 4 h. The AUC [5] was 42900 ng·h/mL, the Cmax [5] was 2450 ng/mL and the Tmax (200 mg, 200 mg once daily, day 1) was 3 h. For the same molecule, the Cmax (200/150 mg once daily (150 mg as of day 8), day 14, n = 3, mean (CV%)) was 8900 ng/mL, the AUC (200/150 mg once daily, day 14, n = 3, mean (CV%)) was 195000 ng·h/mL and the half-life (200/150 mg once daily, day 14, n = 3, mean (CV%), read-out: t1/2,λz (converted)) was 141 h. For the same molecule, the Tmax (200/150 mg once daily, day 14, n = 3) was 12 h, the half-life (once-daily dosing for 14 days, read-out: t1/2,λz range) was 76.7 to 141 h and the “time to steady state in plasma concentrations” value (once-daily dosing for 14 days, irrespective of dose (by day 10)) was 9 dosing days.

From paper PMC8453901, “GLPG1205, a GPR84 Modulator: Safety, Pharmacokinetics, and Pharmacodynamics in Healthy Subjects” (Clinical Pharmacology in Drug Development, 2021)
